According to US7153822B2, “Compositions and methods for modulating connexin hemichannels” (Wyeth, priority 2002, dated 2006):
Square brackets hold non-standard residues; d marks the D form. Peptide text beside a SMILES is read from it. dHyp = O=C(O)[C@H]1C[C@H](O)CN1

What was measured:
[1] = tested on: connexin hemi-channels; experiment: calcein dye uptake in cardiomyocytes under stress buffer (Example 6); format: cell-based, rat
Experimental: 1. Methods Ventricular myocytes were isolated from neonate rats by trypsin digestion and plated onto collagen-coated cover slips. After four days the myocytes formed confluent and synchronously beating sheets of cells. To measure dye uptake, cells were incubated in buffer containing 200 μM calcein for 30 minutes at room temperature. Then coverslips were thoroughly washed with control buffer and mounted in an open bath chamber and superfused with control buffer (RT). Cells were excited with 480 nm light by means of a Xenon lamp and a monochromator. Images of the fluorescence emitted at 510 nm were collected by a cooled CCD camera (Sensicam). Excitation control and image acquisition was controlled using Imaging workbench (Axon).
Under light microscopy three regions were placed over cardiomyocytes in an image. Then average fluorescence intensity was measured, and the procedure was repeated until 30 regions in 10 images had been measured. The average of these measurements were used as value for the given experimental condition, that is n=1. In each series one control incubation was performed and all experimental values are given as relative to this value.
(§1) Solutions: Control buffer (in mM): NaCl 136, KCl 4, MgCl2 0.8, CaCl2 1.8 HEPES 5, MES 5, Glucose 6, pH 7.3 Stress buffer (in mM): NaCl 136, KCl 8, MgCl2 0.8, CaCl2 1.8 HEPES 5, MES 5, Deoxy-glucose 10, pH 6.2

[2] = in vivo; conditions: rat, ip
Experimental: (§2) Compound 1 was delivered by an osmotic minipump (Alzet model 2ML4) that was inserted into the intraperitoneal (i.p.) cavity immediately prior to induction of the myocardial infarction. The pump was filled with vehicle (isotonic saline) or Compound 1 and primed at 37° C. for 24 hours prior to the operation. In order to ensure that the therapeutic plasma concentration was obtained already at the time of infarction, a loading dose of Compound 1 was given s.c. prior to ligation of the LAD.
(§3) After administration of the s.c. loading dose of Compound 1 and after i.p. insertion of the osmotic minipump, a left thoracotomy was performed, and the left anterior decending artery was ligated using a 6-0 silk suture. The thorax is closed in layers, and a negative pressure was induced in the pleural cavity to unfold the lungs. Sham-operated animals were subjected to the same procedure without ligation of the LAD. Postoperatively, the animal were allowed to recover in a heated cabinet at 30° C. with 50% oxygen until the next morning. To prevent dehydration during the recovery period, the rat was given 5 ml 5% glucose s.c. immediately after completion of surgery and another 5 ml 5% glucose at 4 p.m. To relieve postoperative pain, the rat was treated with buprenorphine (20 μg/100 g s.c. b.i.d.) and meloxicam (0.1 mg/100 g s.c. once daily) for three days after the myocardial infarction. […] Plasma concentrations of Compound 1 were measured by mass spectrometry following solid phase extraction.

[3] = tested on: rats subjected to myocardial infarction; experiment: myocardial infarction by LAD ligation in rats, three weeks of treatment; format: in vivo, rat
Experimental: Male Lewis rats (300–350 g; M&B, L1. Skendsved, Denmark) were anaesthetized with a neurolept anaesthesic combination (Hypnorm® (fentanyl citrate 0.315 mg/ml and fluanisone 10 mg/ml)+midazolam (5 mg/ml)). Commercial solution of midazolam was diluted 1:2 in distilled water. Three parts of the diluted midazolam is mixed with one part hypnorm®. Anesthesia was induced by s.c. administration of 0.2 ml of this solution per 100 gram rat. When surgical anesthesia was established, an endotracheal cannula is inserted and the animal is artificially ventilated using a Harvard rodent ventilator adjusted to maintain arterial pH at 7.3–7.5 during surgery.
Doses used are shown below in Table I:
Three weeks after ligation of LAD, the rats were anesthetized with an i.p, injection of pentobarbital (50 mg/kg). The animals were placed on a heating blanket in order to maintain body temperature at 37° C. Tracheotomy was performed and the rat was ventilated with oxygen using a Harvard rodent ventilator. The ventilator was adjusted to maintain arterial pH at 7.35–7.45. PE50 catheters were placed in the femoral vein and artery for i.v. administration and arterial pressure measurements, respectively. After insertion of the femoral i.v. catheter, the animal was paralysed by i.v. administration of pancuronium, 1 mg/kg. Anaesthesia and respiratory paralysis is maintained by continuous i.v. infusion of pentobarbital (2.5 mg/kg/h) and pancuronium (1 mg/kg/h) delivered in isotonic saline (50 μl/min). A tygon catheter was inserted into the left ventricle via the right carotid artery for determination of left ventricular end-diastolic pressure. After recording of left ventricular end-diastolic pressure (LVEDP), The hearts are removed from the bodies by cutting the veins and arteries a few mm from the hearts. […]
Using a microscope with a stage that can be moved in predetermined steps, both Masson-trichrome stained slides were examined and the number of points hitting fibrous tissue (blue stained in Masson-trichrome) and normal tissue are counted. […] Infarct size was calculated as % fibrous tissue in the heart.

[4] = tested on: human osteoblast cultures; conditions: dye transfer after Lucifer Yellow injection; cited from earlier work
[5] = tested on: neonatal rat ventricular cardiomyocytes; conditions: cited from earlier work
[6] = rat, in vivo, sc
Experimental: as §2, §3

[7] = tested on: Ventricular myocytes; experiment: volume measurements in cardiomyocytes during metabolic inhibition; format: cell-based, rat; conditions: 0.1 nM in stress medium, six experiments (stress alone 1.06±0.02, control 0.94±0.04)
Experimental: 1. Methods: Ventricular myocytes were isolated from neonate rats by trypsin digestion and plated onto collagen-coated cover slips. After four days the myocytes formed confluent and synchronously beating sheets of cells. To measure cell volume cells were loaded with calcein-AM (5 μM in control buffer) for 15 minutes at 37° C. and the cover slips mounted in an open bath chamber. The following experiments were performed at room temperature. Using a Leica laser confocal microscope, an optical cross-section was performed every 20 seconds throughout the duration of the experiments.
The optical cross-sections were analyzed using Metamorph (Universal Imaging). The area of the cell was determined as the area of pixels with fluorescence intensities higher than a threshold value chosen to minimize background induced fluctuations. Data are presented as relative volumes by dividing each value by the average area under control conditions (the last measurement before metabolic stress).
as §1

With `CC(=O)N[C@H](Cc1ccc(O)cc1)C(=O)N1CCC[C@@H]1C(=O)N1C[C@@H](O)C[C@@H]1C(=O)NCC(=O)N[C@H](C)C(=O)NCC(N)=O` [Compound 1, Ac-D-Tyr-D-Pro-D-4Hyp-Gly-D-Ala-Gly-NH2] (Ac-[dY][dP][dHyp]G[dA]G-NH2) the EC50 ([1]; 0.1 pM to 10 nM, sigmoidal function, read-out: ED50 for reduction of stress-induced calcein uptake) was 3.3 ± 5.3 pM, the “average fluorescence intensity during maximal inhibition, above control” value ([1]; stress buffer (stress alone 36.2±4.18% higher)) was 6.9±1.7 % above control and the “effect on uptake of calcein” value ([1]; stress, 0.1 pM to 10 nM) was “dose-dependently reduced the uptake of calcein”. The level at time molar at 504 h ([2]; 11 pmol/kg/min) was 1.7 ± 0.4 nM, the level at time molar at 504 h ([2]; 110 pmol/kg/min) was 5.7 ± 0.4 nM and the level at time molar at 504 h ([2]; 1100 pmol/kg/min) was 93.7 ± 12.3 nM. The “left ventricular end-diastolic pressure” value ([3]; either dose, three weeks) was “reduced left ventricular end-diastolic pressure”, the “heart weight-body weight ratio” value ([3]; rats, three weeks after MI) was “reduced by the two highest doses” and the “reduction of infarct size relative to vehicle treated MI rats” value ([3]; treatment for three weeks) was 20–50%. For the same molecule, the “reversal of hypoxia-induced decrease of calcium wave propagation” value [4] was “completely reversed”, the “noradrenalin-induced PI turnover, level relative to normal” value ([5]; during oxygen and glucose deprivation (untreated app. 50%)) was ~90 % of the normal level and the “noradrenalin-induced level of PI turnover” value ([5]; normal atmospheric and nutritional conditions) was “does not alter”. For the same molecule, the “time to steady-state plasma level” value [6] was 3 min and the “average relative volume during stress” value [7] was 0.93±0.05.
